We go through four compounds from ChEMBL document CHEMBL1201862, “PubChem BioAssay data set” (2004).

Calls of active or inactive are those of the source.

Holding throughout (type): functional
For experiment [1], the target named is T1, Hexokinase-1 (Homo sapiens, UniProt P19367).
T1 sequence (P19367 whole entry): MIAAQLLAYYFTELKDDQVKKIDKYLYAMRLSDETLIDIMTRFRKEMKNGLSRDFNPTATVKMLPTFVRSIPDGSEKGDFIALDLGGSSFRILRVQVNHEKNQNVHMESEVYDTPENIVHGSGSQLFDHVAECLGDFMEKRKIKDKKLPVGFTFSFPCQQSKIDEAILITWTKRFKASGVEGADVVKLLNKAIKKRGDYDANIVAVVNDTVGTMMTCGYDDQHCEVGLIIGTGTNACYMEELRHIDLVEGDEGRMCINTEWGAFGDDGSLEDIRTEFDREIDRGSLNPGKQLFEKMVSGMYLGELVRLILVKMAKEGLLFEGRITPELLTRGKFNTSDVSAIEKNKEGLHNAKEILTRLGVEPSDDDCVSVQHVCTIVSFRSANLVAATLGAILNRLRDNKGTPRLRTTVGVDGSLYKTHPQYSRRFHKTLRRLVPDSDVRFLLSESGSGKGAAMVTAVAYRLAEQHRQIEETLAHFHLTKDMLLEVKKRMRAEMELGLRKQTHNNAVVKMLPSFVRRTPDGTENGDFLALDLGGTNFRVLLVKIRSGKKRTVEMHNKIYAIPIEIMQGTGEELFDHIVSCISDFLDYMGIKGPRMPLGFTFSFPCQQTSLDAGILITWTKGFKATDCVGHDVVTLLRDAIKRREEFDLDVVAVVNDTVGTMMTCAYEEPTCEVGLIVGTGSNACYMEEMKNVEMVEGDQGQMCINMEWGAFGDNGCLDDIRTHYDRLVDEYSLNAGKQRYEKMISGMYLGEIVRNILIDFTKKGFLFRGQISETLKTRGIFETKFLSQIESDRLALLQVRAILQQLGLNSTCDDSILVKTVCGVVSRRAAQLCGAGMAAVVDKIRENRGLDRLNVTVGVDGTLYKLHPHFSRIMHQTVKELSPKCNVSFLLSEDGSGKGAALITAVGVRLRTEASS
Put plainly: SAR analysis of small molecule inhibitors of hexokinase domain containing I (HKDC1) in the hexokinase 1 selectivity assay. [Related pubchem assays (depositor defined):AID493160, AID493190].

For experiment [2], the target named is T2, Hexokinase HKDC1 (Homo sapiens, UniProt Q2TB90).
T2 sequence (Q2TB90 whole entry): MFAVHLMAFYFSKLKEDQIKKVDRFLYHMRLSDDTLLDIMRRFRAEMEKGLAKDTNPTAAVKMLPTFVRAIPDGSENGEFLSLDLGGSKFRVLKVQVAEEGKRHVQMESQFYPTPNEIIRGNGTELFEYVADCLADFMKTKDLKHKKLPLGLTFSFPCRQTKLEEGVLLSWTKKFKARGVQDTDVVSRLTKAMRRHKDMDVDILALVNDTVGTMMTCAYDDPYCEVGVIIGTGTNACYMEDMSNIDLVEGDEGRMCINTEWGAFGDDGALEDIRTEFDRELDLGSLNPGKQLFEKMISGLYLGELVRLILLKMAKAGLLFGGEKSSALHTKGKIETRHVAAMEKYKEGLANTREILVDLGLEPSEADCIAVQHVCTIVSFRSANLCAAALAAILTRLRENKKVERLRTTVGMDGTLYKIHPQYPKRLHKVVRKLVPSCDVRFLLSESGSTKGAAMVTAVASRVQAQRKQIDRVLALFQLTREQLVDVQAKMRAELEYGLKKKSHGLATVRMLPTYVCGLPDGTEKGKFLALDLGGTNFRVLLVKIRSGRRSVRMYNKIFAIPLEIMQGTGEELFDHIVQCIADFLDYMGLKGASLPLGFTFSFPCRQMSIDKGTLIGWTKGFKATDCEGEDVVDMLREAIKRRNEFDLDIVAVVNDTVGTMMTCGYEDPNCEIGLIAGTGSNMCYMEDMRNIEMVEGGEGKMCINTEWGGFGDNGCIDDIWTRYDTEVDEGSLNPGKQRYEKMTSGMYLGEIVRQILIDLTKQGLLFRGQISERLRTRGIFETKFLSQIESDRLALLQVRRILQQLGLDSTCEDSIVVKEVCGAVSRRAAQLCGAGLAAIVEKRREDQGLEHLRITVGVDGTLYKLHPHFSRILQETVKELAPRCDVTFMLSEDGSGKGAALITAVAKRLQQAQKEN
As to the kind of experiment: SAR analysis of small molecule inhibitors of hexokinase domain containing I (HKDC1). [Related pubchem assays (depositor defined):AID493160, AID493190].

Experiment [3] has as its target T3, Caspase-3 (Homo sapiens, UniProt P42574).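 Further: Dose-response selectivity test against caspase-3 for candidate inhibitors of sentrin-specific proteases (SENPs).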
T3 sequence (P42574 whole entry): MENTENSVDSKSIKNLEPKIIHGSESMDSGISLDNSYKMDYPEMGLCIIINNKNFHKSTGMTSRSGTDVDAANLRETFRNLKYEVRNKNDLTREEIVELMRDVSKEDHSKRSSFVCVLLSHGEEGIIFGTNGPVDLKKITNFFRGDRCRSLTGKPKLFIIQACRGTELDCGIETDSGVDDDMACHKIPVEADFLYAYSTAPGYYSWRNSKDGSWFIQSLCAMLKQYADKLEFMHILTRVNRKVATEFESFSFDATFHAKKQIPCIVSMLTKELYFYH

Experiment [4] deals with T4, Coagulation factor XII (Homo sapiens, UniProt P00748).
T4 sequence (P00748 whole entry): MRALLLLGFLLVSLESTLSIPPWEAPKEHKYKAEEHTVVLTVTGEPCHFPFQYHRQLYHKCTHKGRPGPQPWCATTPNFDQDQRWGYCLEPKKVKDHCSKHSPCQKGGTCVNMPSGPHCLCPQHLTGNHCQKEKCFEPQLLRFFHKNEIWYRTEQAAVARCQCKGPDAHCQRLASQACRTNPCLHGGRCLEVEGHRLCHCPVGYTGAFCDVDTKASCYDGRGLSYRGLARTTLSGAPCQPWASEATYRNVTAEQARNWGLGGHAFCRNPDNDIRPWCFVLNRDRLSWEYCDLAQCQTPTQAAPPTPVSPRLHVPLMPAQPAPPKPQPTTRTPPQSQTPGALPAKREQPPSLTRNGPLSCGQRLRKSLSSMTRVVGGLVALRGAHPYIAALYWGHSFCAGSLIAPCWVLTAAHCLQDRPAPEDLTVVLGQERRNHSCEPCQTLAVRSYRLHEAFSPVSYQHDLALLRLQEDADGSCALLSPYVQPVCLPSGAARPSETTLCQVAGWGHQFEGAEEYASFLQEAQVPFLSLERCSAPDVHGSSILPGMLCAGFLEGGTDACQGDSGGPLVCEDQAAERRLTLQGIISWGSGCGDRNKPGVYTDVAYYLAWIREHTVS

Experiment [5] concerns the target T5, Sentrin-specific protease 7 (Homo sapiens, UniProt Q9BQF6).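 Further: Luminescence-based dose-response confirmation of ultra-high-throughput screening hits, measuring inhibition of SENP7.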
T5 sequence (Q9BQF6 whole entry): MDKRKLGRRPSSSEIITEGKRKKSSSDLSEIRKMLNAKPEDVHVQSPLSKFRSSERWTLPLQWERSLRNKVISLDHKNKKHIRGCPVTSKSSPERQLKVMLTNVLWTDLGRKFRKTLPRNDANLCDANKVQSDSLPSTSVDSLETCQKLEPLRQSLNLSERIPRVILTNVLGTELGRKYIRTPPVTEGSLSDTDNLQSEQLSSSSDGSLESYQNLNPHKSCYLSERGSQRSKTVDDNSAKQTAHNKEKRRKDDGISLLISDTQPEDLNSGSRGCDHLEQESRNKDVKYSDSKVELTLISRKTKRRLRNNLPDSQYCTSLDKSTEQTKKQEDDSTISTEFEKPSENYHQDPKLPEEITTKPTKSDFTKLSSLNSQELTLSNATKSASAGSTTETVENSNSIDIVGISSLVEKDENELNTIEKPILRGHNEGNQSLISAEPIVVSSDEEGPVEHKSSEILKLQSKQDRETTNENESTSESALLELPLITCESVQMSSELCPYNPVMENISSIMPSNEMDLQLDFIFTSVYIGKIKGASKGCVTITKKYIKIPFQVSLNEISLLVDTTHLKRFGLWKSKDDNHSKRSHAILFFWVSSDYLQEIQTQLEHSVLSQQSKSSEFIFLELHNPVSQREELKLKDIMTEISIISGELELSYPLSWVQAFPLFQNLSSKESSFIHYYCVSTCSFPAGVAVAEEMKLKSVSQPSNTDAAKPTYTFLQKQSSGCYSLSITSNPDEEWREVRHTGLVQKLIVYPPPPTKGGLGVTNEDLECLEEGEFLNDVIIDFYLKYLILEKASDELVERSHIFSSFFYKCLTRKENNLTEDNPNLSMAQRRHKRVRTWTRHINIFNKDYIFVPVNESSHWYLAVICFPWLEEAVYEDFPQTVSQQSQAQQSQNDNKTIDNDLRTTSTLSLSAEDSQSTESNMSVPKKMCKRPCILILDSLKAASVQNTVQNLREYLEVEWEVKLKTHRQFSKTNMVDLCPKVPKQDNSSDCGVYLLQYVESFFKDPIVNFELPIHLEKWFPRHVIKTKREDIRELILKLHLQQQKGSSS

Experiment [6] concerns the target T6, Sentrin-specific protease 6 (Homo sapiens, UniProt Q9GZR1).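 Further: Luminescence-based dose-response confirmatory assay of SENP6 inhibition, following up an ultra-high-throughput screen.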
T6 sequence (Q9GZR1 whole entry): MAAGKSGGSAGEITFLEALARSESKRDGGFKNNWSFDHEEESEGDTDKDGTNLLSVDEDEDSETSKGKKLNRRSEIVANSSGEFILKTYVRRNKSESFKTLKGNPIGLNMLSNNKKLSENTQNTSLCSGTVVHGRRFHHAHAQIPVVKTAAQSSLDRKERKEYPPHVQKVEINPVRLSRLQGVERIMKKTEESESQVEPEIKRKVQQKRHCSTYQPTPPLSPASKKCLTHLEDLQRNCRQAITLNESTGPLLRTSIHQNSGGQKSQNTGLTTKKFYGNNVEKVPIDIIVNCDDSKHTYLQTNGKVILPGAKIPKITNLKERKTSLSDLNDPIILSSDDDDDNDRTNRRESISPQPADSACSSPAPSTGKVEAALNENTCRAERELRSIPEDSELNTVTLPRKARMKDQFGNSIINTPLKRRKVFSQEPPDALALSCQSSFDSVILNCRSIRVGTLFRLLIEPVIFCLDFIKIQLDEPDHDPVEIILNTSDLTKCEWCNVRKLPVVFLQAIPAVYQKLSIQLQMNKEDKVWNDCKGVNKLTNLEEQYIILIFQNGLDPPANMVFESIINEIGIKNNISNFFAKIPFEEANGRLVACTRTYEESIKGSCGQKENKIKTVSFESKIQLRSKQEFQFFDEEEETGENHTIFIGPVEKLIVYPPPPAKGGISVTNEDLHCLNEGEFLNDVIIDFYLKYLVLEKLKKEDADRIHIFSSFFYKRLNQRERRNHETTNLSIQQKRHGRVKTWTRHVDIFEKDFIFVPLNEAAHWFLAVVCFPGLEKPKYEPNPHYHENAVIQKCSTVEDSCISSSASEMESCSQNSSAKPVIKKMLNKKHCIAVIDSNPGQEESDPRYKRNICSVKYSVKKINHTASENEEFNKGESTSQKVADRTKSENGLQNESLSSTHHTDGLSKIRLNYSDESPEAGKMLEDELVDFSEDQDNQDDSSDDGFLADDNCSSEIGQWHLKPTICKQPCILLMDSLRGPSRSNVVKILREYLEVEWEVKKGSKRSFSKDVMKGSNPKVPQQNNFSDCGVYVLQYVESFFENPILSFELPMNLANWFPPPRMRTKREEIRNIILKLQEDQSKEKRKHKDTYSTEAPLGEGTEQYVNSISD

For experiment [7], the target named is T7, Sentrin-specific protease 8 (Homo sapiens, UniProt Q96LD8).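 Further: luminescence read-out of SENP8 inhibition, dose-response confirmation following an ultra-high-throughput screen.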
T7 sequence (Q96LD8 whole entry): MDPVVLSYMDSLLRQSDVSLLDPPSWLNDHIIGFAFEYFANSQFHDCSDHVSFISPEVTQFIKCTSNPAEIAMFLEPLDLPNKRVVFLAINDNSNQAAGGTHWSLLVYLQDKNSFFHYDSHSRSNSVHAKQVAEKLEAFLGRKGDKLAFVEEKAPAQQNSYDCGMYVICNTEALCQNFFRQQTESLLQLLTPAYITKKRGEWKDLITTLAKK

Turning to `O=c1c2ccccc2nc(/C=C/c2ccccc2)n1CCc1ccccc1`, the IC50 in experiment [1] and in experiment [2] was > 80 µM (inactive) each time.
For the compound `Cc1ccc(C)c(-c2nc3cc(N)ccc3o2)c1`, the half-inhibitory concentration (IC50) (commonly the point on the concentration scale where inhibition reaches its midpoint) in experiment [3] is 27.5 µM (active); in experiment [4] it was > 50 µM (inactive); in experiment [5], 9.65 µM (active); in experiment [6] it was 25.2 µM (active); in experiment [7], 31.1 µM (active).
Turning to `Cc1ccc(C)c(S(=O)(=O)Nc2cccc3ccccc23)c1`, the IC50 in experiment [1] and in experiment [2] was > 80 µM (inactive) in each case.
With `O=S(=O)(Nc1ccc(O)c2ccccc12)c1ccc(Cl)cc1`, the IC50 in experiment [1] was > 80 µM (inactive); in experiment [2], 15.6 µM (active).
